# Test results taken from patent US20180263943A1, “COMPOUND FOR TREATMENT OF MYOTONIC DYSTROPHY TYPE 1” (UNIVERSITAT DE VALÈNCIA, ESTUDI GENERAL, priority 2014, published 2018).
# Entries after “also recorded” stand apart in the source; their conditions may differ.
# Experiments:
# [1] = system: DM1 model flies [Mhc-Gal4 UAS-i(CTG)480>yw]; test: Histological analysis of indirect flight muscle area in DM1 model flies; type: in vivo, Drosophila; conditions: oral administration
# Method: Analysis of the indirect flight muscle area in Drosophila thoraces was performed as previously described (13). Briefly, six Drosophila thoraces of three-day-old females were embedded in Epon following standard procedures. After the drying of the resin, semi-thin sections of 1.5 μm were obtained using Ultracut E ultramicrotome system (Reichert & Jung and Leica). Images were taken at 100× magnification with a Leica DM2500 microscope. To quantify muscle area, five images per fly containing IFMs (indirect flight muscles) were converted into binary images. Considering the complete image as 100% of the area, the percentage occupied by pixels corresponding to IFMs was calculated using NIH ImageJ software. P-values were obtained using a two-tailed, non-paired t-test (α=0.05), applying Welch's correction when necessary.
# For that purpose, DM1 model flies were fed with food containing 10 and 100 μM NAC for 7 days.
# Histological analysis of muscles was performed in adult model flies [Mhc-Gal4 UAS-i(CTG)480>yw] and control flies (Mhc-Gal4>yw) which were fed for 7 days at 25° C. with standard media containing 10 and 100 μM NAC. After that period, six female thoraces were subjected to non-fluorescent histological analysis, as described above (FIG. 7).
# [2] = system: DM1 fibroblasts; test: LysoTracker staining of autolysosomes in DM1 fibroblasts; type: cell-based, human; conditions: 0.01, 1, 10 and 100 μM, 48 h
# Method: A cell model of DM1 (provided by D. Furling's laboratory, Institute of Myologie, Paris) consisted of normal and DM1 (1300 CTG repeats) immortalized (hTERT) skin fibroblasts expressing conditional MyoD. Fibroblast cells were grown in Dulbecco's Modified Eagle Medium (DMEM) with 4.5 g/L of glucose, 1% of penicillin and streptomycin (P/S) and 10% foetal bovine serum (FBS) (Sigma). For compound testing, fibroblasts were aliquoted in 24-well plate at 3.5×10^4 cells per well. Each well contained a cover slip.
# To this end, a cell model of DM1 was cultured as described above and NAC (Sigma-Aldrich) was added to afford final concentrations of 0.01, 1, 10 and 100 μM before incubating the cultures for 48 hours. To transdifferentiate fibroblasts into myoblasts by inducing expression of MyoD, cells were plated in muscle differentiation medium (MDM) containing DMEM 4.5 g/L glucose with 1% P/S, 2% horse serum, 1% apo-transferrin (10 mg/mL), 0.1% insulin (10 mg/mL) and 0.02% doxycyclin (10 mg/mL). After treatment with NAC, each well was washed twice with PBS and incubated with 100 nM LysoTracker RED-DND99 and 5 μg/mL Hoechst 33258 (Invitrogen and Sigma-Aldrich, respectively) at 37° C. for 30 min and mounted using fluorescence mounting medium (Dako, Glostrup, Denmark). Images from cell culture were obtained using a fluorescence microscope Leica DM4000 B LED at 400× magnification (FIG. 6).
# [3] = system: MBNL1; test: MBNL1 nuclear protein levels in DM1 myoblasts (immunofluorescence); type: cell-based, human; conditions: 0.1, 1, 10 and 100 μM, 24 h
# Method: In order to determine whether NAC modifies MBNL1 protein levels and/or the number of ribonuclear foci, DM1 fibroblasts were transdifferentiated to myoblasts by induction of MyoD expression for 24 h. To this end, fibroblasts were aliquoted in 96-well plate (8×10^3 cells per well) and transdifferentiated to myoblast in DMD media over 24 hours before the addition of NAC was added at concentrations of 0.1, 1, 10 and 100 μM using DMSO and water as vehicle and remained in the media with the compound another 24 hours. Subsequently cells were fixed in 4% paraformaldehyde (PFA) for 10 min at room temperature followed by several washes in PBS 1×. Cells were then permeabilized with 0.3% Triton in PBS (PBT), blocked (PBT 1% donkey serum and 0.5% BSA) for 30 min at room temperature, and incubated with primary antibody (mouse anti-MBNL1 1:200; Sigma) at 4° C. overnight in order to detect MBNL1 with a monoclonal antibody. After several washes with PBT, cells were incubated for 45 min with biotin-conjugated secondary antibody (Sigma) at a 1:200 dilution. Cells were then incubated with ABC solution (ABC kit, VECTASTAIN) for 30 min at room temperature, followed by PBT washes and incubation with streptavidin-FITC (1:200) for 45 min. […] Images were taken using IN Cell Analyzer 2200 Imaging System and MBNL intensity in nuclei was counted using software designed for this system.
# [4] = system: ribonuclear foci; test: Ribonuclear foci detection in DM1 cells (in situ hybridization); type: cell-based, human; conditions: 0.1, 1, 10 and 100 μM, 24 h
# Method: In addition, for ribonuclear foci detection, fibroblasts were aliquoted in 96-well plate (1.0×10^4 cells per well). Compound was added 24 hours after plating the cells. After 24 hours incubation with NAC at concentrations of 0.1, 1, 10 and 100 μM using DMSO and water as vehicle, cells were fixed in 4% paraformaldehyde (PFA) for 10 min at room temperature followed by several washes in PBS 1×. Fixed cells were incubated in pre-hybridization buffer (SSC 2×, 30% deionized formamide) for 30 min at room temperature, hybridized with Cy3-(CAG)7-Cy3 labelled probe diluted 1:500 in hybridization buffer (40% formamide, 2×SSC, 0.2% BSA, 10% dextran sulfate, 2 mM vanadyl complex, 10% tRNA (10 mg/mL), 10% herring sperm) for 2 hours at 37° C., washed twice in SSC2× buffer for 15 min at 45° C., washed in PBS 1× for 15 min at room temperature, incubated with Hoechst 33342 (5 mg/mL) diluted 1:2000 in PBS 1× for 20 min at room temperature and mounted with 20% MOWIOL. Images were taken using IN Cell Analyzer 2200 Imaging System and foci number was counted using software designed for this system.
# [5] = system: Myosin heavy chain (Mhc)-Gal4 UAS-i(CTG)480 flies; test: Flight assay (landing height); type: in vivo, Drosophila; conditions: five days
# Method: Flight assays were performed five days after according to (Babcock et al. 2014 PMID: 24561810) using 100 male flies per group. Landing distance was compared between groups taking the compound and controls using t-student test (FIG. 8). The significance threshold was set to p<0.05.
# [6] = system: DM1 model flies (Mhc-Gal4 UASi(CTG)480>yw); test: Drosophila lifespan analyses with oral drug administration; type: in vivo; conditions: for increase in mean life compared to that for untreated flies: oral, 29° C.; for median survival compared to untreated flies / survival / mean life expectancy of myotonic dystrophy type 1 model flies (summary): oral administration; for survival / mean life expectancy of myotonic dystrophy type 1 model flies (summary): tested at 10 and 100 μM
# Method: Between 50-80 newly emerged flies were collected in freshly prepared tubes containing standard nutritive medium containing apoptosis or autophagic inhibitor drugs or solvent only (water or DMSO). Males and females were kept in different tubes at 29° C. Every day, the number of dead flies was scored. Flies were transferred to new tubes twice a week. NAC, chloroquine and NSCl (Sigma-Aldrich) were tested at 10 and 100 μM and dissolved in water or DMSO following the manufacturer's indications. Survival curves were obtained using the Kaplan-Meier method. Statistical curve comparisons were carried out according to the Gehan-Breslow-Wilcoxon test (α=0.05).
# The effect of a chemical inhibition of apoptosis or autophagy in model flies (Mhc-Gal4 UASi(CTG)480>yw) was studied. Consequently, two different drugs previously described as autophagic inhibitors were tested. N-acetyl cysteine (NAC) blocks reactive oxygen species (ROS) and protects cells by inhibiting autophagy through activation of the PI3K/Akt/mTOR pathway (20), and chloroquine triggers autophagy inhibition raising lysosomal pH and, consequently, the fusion of autophagosome with lysosome, thus preventing lysosomal protein degradation [reviewed in (21)]. Both drugs were assayed at two different concentrations, 10 and 100 μM (FIGS. 5 A, B).
# Additionally, the effects of apoptosis inhibition were assayed. NSCl, a caspase 3 inhibitor, was orally administered.
Compound,muscle area of IFM versus water control ([1]; 10 μM),muscle area of IFM versus water control ([1]; 100 μM),autolysosomes (LysoTracker staining) compared to untreated DM1 fibroblasts [2],MBNL1 intensity in the nucleus / MBNL1 protein levels [3],number of ribonuclear foci [4],landing height ([5]; 10 μM in food),landing height ([5]; 100 μM in food),increase in mean life compared to that for untreated flies ([6]; 10 μM in food),median survival compared to untreated flies ([6]; 10 μM),increase in mean life compared to that for untreated flies ([6]; 100 μM in food),median survival compared to untreated flies ([6]; 100 μM),survival / mean life expectancy of myotonic dystrophy type 1 model flies (summary) [6],"improvement of mean life ([6]; 10 μM (lower concentration), orally administered)"
"CC(=O)N[C@@H](CS)C(=O)O [NAC, N-acetyl cysteine]",increase in muscle area,increase in muscle area,dramatic decrease of autolysosomes; also recorded: dramatically reduce autolysosomes,remains unchanged,does not modify; also recorded: neither modifies,significantly higher landing height,significantly higher landing height,at least twice,increased median survival,at least twice,increased median survival,more than doubled,
CCN(CC)CCCC(C)Nc1ccnc2cc(Cl)ccc12 (stereo not shown) [chloroquine],increase in muscle area,,,,,,,at least twice,increased median survival,at least twice,increased median survival,more than doubled,
"COc1ccc(CN2C(=O)C(=O)c3cc(S(=O)(=O)N4CCC[C@H]4COc4cccnc4)ccc32)cc1 [NSCl, 1-(4-methoxybenzyl)-5-({(2S)-2-[(3-pyridinyloxy)methyl]-1-pyrrolidinyl}sulfonyl)-1H-indole-2,3-dione]",,,,,,,,,improvement in median survival,,No effect,improved,4 days
